This note sets out measurements from patent publication US20040248765A1, “Tumour targeting prodrugs activated by metallo matrixproteinases” (priority 2001, published 2004).

Read-outs that look alike come from different tables or passages of the source. Where a SMILES comes first, the peptide text is derived from it. [ ]: non-standard residue; d: D form. The star is where a group is joined. NH(CH2)3NH(1-anthraquinonyl) = O=C1c2ccccc2C(=O)c2c(NCCCN*)cccc21

For one data set, the system named is MAC15A. Put plainly: In vitro cytotoxicity, MAC15A, 1 hour exposure. It is filed as cell-based. The note with it: for % cells remaining: 1 × 10^4 cells/ml.
The next data set deals with T1, topo I (Homo sapiens, UniProt P11387).
T1 sequence (P11387 1-765): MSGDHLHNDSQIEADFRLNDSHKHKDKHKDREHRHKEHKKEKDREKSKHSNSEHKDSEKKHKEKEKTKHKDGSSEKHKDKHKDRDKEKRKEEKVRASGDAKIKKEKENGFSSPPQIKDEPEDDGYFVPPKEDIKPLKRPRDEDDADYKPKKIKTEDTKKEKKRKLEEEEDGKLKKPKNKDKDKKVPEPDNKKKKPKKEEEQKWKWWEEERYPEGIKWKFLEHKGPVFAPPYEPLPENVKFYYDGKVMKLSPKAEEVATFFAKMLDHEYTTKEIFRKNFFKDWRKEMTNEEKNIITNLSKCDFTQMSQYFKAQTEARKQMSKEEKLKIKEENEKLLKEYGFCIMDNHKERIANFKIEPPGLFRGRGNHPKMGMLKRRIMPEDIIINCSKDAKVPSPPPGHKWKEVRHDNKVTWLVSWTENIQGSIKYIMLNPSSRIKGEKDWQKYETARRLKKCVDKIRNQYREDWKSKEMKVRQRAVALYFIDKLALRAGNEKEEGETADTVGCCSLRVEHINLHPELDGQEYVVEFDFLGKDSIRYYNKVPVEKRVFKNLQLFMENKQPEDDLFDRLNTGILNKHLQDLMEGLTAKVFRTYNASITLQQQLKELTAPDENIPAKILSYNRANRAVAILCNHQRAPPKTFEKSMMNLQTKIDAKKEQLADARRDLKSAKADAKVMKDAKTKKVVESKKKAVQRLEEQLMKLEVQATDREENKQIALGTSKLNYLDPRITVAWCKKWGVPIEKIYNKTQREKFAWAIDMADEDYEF
Put plainly: Inhibition of topo I-mediated relaxation of pBR322 DNA. In kind it is biochemical. The note with it: for LEVEL OF INHIBITION of topo I-mediated relaxation pBR322 DNA: tested between 1-100 μM. As for the experimental part:
Neither example (8) [NU:UB187] (heptapeptide) nor its hexa-, penta-, or tetra-peptide metabolites {examples (7) [NU:UB 205], (6) [NU:UB 204] and (5) [NU:UB 186] respectively} inhibited the topo I- mediated relaxation of pBR322 DNA at concentrations up to 100 μM. […] (the preferred MMP-2 cleavage product of example (8) [NU:UB187] The topo I activities of example (2) [NU:UB 31] and example (1b) [NU:UB 197] bad previously been determined [Table 1].

Data set [1] has as its system calf thymus DNA. Briefly: Fluorescence quenching, Hoechst Dye 33258 displacement from calf thymus DNA. As to conditions: calf thymus DNA. It is filed as binding.
The test system of data set [2] is calf thymus DNA. Briefly: Fluorescence quenching, Ethidium Bromide displacement from calf thymus DNA. In kind it is binding. As to conditions: calf thymus DNA.
Data set [3] relates to MAC15A adenocarcinoma of the colon. Put plainly: In vitro cytotoxicity against MAC15A adenocarcinoma of the colon, 96 hours exposure. It is filed as cell-based.
A short description of data set [4]: Stability in murine whole blood and mouse plasma. It is filed as in vitro ADME.
Data set [5] can be described thus: In vitro tumour incubations: metabolism by dilute HT1080 tumour homogenate (HPLC). In kind it is in vitro ADME. The note with it: dilute HT1080 tumour homogenate (1:500). The procedure: Separation was achieved using gradient reversed phase HPLC On a Lichrospher (25×4 mm) column.
Mobile phase A consisted of 10% acetonitrile: 90% TFA (0.05%) and mobile phase B of 60% acetonitrile: 40% TFA (0.05%). Optimum detection was at the λmax of 248 nm using a flow rate of 1.2 ml/min. The gradient profile was from 60% A to 5% A over 25 min.
Sample preparation for HPLC was by simple protein precipitation. 3 vols. of methanol were added to 1 vol. of sample (typically 100 μl) which was centrifuged at 3000 g for 5 min. The supernatant was injected directly onto the HPLC column.
In Vitro Tumour Incubations
Solid tumour (HTT1080—excised from NCI-Nu mice under a Home Office Licence) was homogenised (1:4) in MMP buffer. Tumour homogenates were incubated at 25° C. and compounds (drugs) were added to the homogenate to give a final concentration of 10 μM or 100 μM. Samples were taken at timed intervals and prepared for HPLC analysis as described above.
Where metabolism was so rapid tumour homogenates required dilution (to 1:500) before analysis.

In general, IC50 refers to the concentration needed to halve the response being measured. Regarding `NCCCNc1cccc2c1C(=O)c1ccccc1C2=O.O=C(O)C(F)(F)F` [Example 1b, 1-[(3-Aminopropyl)amino]anthraquinone trifluoroacetate], the “% cells remaining” value in the data set with MAC15A (1 μM) was determined as 90%; in the data set on MAC15A (10 μM) it was 100%; with MAC15A (100 μM), 5%. For the same compound, it took 33 µM to reach half-maximal inhibition in the data set with MAC15A (Mus musculus) (IC50). In addition, on topo I, the “LEVEL OF INHIBITION of topo I-mediated relaxation pBR322 DNA” value (“LEVEL OF INHIBITION” below) was “Complete inhibition of relaxation at 25 μM”.

With `O=C(O)C(F)(F)F.O=C1c2ccccc2C(=O)c2c(NCCCNC(=O)[C@@H]3CCCN3)cccc21` [Example 2, 1-[3-(L-Propylamino)propylamino]anthraquinone trifluoroacetate], the IC50 with MAC15A was 5 µM; in data set [3] (exposure time 96 hours, read-out: IC50), 4.3 µM. Moreover, the “% cells remaining” value was found to be 100% with MAC15A (1 μM), 30% with MAC15A (10 μM) and 0% in the data set with MAC15A (100 μM). In addition, in the data set on calf thymus DNA [1], the “QH50 (Hoechst Dye 33258 displacement)” value came to 0.6 µM. Also, at topo I, the “LEVEL OF INHIBITION” value is given as “Complete inhibition of relaxation at 25 μM”. In addition, the “QE50 (Ethidium Bromide displacement)” value in the data set on calf thymus DNA [2] was determined as 2 µM.

The term melting point denotes the temperature, or range, at which the solid turns liquid. Turning to `CC(C)C[C@H](N)C(=O)N1CCC[C@H]1C(=O)NCCCNc1cccc2c1C(=O)c1ccccc1C2=O.O=C(O)C(F)(F)F` [Example 3, 1-[3-(L-Leucyl-L-prolylamino)propylamino]anthraquinone trifluoroacetate], the melting point came out at 126 °C. Also, the “% cells remaining” value with MAC15A (1 μM) came out at 80%. In addition, in the data set with MAC15A (10 μM), the “% cells remaining” value turned out to be 58%. Further, the “% cells remaining” value in the data set with MAC15A (100 μM) came to 1%. Further, the IC50 in the data set with MAC15A (Mus musculus) worked out at 14 µM. Besides, the “LEVEL OF INHIBITION” value at topo I is given as “Complete inhibition of relaxation at 5 μM”. Further, the concentration for half-maximal inhibition (IC50) in data set [3] (Mus musculus, 96 h) was determined as 2 µM.

`CC(C)C[C@H](NC(=O)CN)C(=O)N1CCC[C@H]1C(=O)NCCCNc1cccc2c1C(=O)c1ccccc1C2=O.O=C(O)C(F)(F)F` [Example 4, 1-[3-(Glycyl-L-leucyl-L-prolylamino)propylamino]anthraquinone trifluoroacetate] came in with a melting point of 144 to 148 °C. The “% cells remaining” value with MAC15A (1 μM) was 91%. The “% cells remaining” value with MAC15A (10 μM) was determined as 55%. Further, in the data set on MAC15A (100 μM), the “% cells remaining” value came to 0%. For the same compound, the IC50 with MAC15A (Mus musculus) is 13 µM. On topo I, the “LEVEL OF INHIBITION” value was “Partial inhibition of relaxation at 50 μM”.

Take `CC(C)C[C@H](NC(=O)CNC(=O)[C@@H](N)CC(C)C)C(=O)N1CCC[C@H]1C(=O)NCCCNc1cccc2c1C(=O)c1ccccc1C2=O.O=C(O)C(F)(F)F` [Example 5, 1-[3-(L-Leucyl-glycyl-L-leucyl-L-prolylamino)propylamino]-anthraquinone trifluoroacetate] (H-LGLP-{NH(CH2)3NH(1-anthraquinonyl)}): the melting point worked out at 144 °C. In the data set with MAC15A (1 μM), the “% cells remaining” value is 89%. Besides, the “% cells remaining” value with MAC15A (10 μM) worked out at 100%. Besides, the “% cells remaining” value with MAC15A (100 μM) is given as 0%. Also, the IC50 in the data set with MAC15A (Mus musculus) was 30 µM. In addition, the “LEVEL OF INHIBITION” value on topo I is “No inhibition of relaxation between 1-100 μM”.

The compound `CC(C)C[C@H](NC(=O)[C@H](C)N)C(=O)NCC(=O)N[C@@H](CC(C)C)C(=O)N1CCC[C@H]1C(=O)NCCCNc1cccc2c1C(=O)c1ccccc1C2=O.O=C(O)C(F)(F)F` [Example 6, 1-[3-(L-Alanyl-L-leucyl-glycyl-L-leucyl-L-prolylamino)propylamino]-anthraquinone trifluoroacetate] gave a melting point of 168 °C. Further, the “LEVEL OF INHIBITION” value on topo I was “No inhibition of relaxation between 1-100 μM”.

Compound `CC(C)C[C@H](NC(=O)[C@H](C)NC(=O)[C@H](C)N)C(=O)NCC(=O)N[C@@H](CC(C)C)C(=O)N1CCC[C@H]1C(=O)NCCCNc1cccc2c1C(=O)c1ccccc1C2=O.O=C(O)C(F)(F)F` [Example 7, 1-[3-(L-Alanyl-L-alanyl-L-leucyl-glycyl-L-leucyl-L-prolylamino)-propylamino]anthraquinone trifluoroacetate] registered a melting point of 132 °C. Moreover, the “LEVEL OF INHIBITION” value on topo I is “No inhibition of relaxation between 1-100 μM”.

In turn, `CC[C@H](C)[C@H](NC(=O)[C@H](Cc1ccccc1)NC(=O)[C@H](CC(C)C)NC(=O)[C@@H](C)N)C(=O)NCC(=O)N[C@@H](Cc1ccccc1)C(=O)N1CCC[C@H]1C(=O)NCCCNc1cccc2c1C(=O)c1ccccc1C2=O.O=C(O)C(F)(F)F` [Example 77, 1-[3-(D-Alanyl-L-Leucyl-L-Phenylalanyl-L-isoleucyl-glycyl-L-phenylalanyl-L-prolylamino)propylamino]anthraquinone trifluoroacetate] had a melting point of 142 to 148 °C. Also, in data set [3] (Mus musculus, exposure time 96 hours, read-out: IC50), the IC50 stood at 24 µM.

With `CC(C)C[C@H](N)C(=O)N1CCC[C@H]1C(=O)NCCCNc1cccc2c1C(=O)c1ccccc1C2=O.O=C(O)C(F)(F)F` [example (3)], the “inhibition of topo I-mediated relaxation, in words” value at topo I was “Greatest inhibitory activity”.

For the compound `CC(C)C[C@H](NC(=O)CN)C(=O)N1CCC[C@H]1C(=O)NCCCNc1cccc2c1C(=O)c1ccccc1C2=O.O=C(O)C(F)(F)F` [example (4)], the “inhibition of topo I-mediated relaxation, in words” value at topo I was “weakly inhibited relaxation at 50 μM”.

Usually t½ stands for the time needed for the level to fall by half in the phase considered. Low values mean rapid decline, high ones slow decline. What is called half-life is the time in which the quantity being followed falls by half. For `CC(C)C[C@H](NC(=O)[C@H](C)NC(=O)[C@H](C)NC(=O)[C@@H](C)N)C(=O)NCC(=O)N[C@@H](CC(C)C)C(=O)N1CCC[C@H]1C(=O)NCCCNc1cccc2c1C(=O)c1ccccc1C2=O.O=C(O)C(F)(F)F` [example (8)] (H-[dA]AALGLP-{NH(CH2)3NH(1-anthraquinonyl)}), the t½ in data set [4] (mouse plasma at 37° C.) is given as over 13 h. The compound also registered a half-life in data set [4] (murine whole blood) of 1.46 h.

Consider `CC(C)C[C@H](NC(=O)[C@H](C)NC(=O)[C@H](C)NC(=O)[C@@H](C)N)C(=O)NCC(=O)N[C@@H](CC(C)C)C(=O)N1CCC[C@@H]1C(=O)NCCCNc1cccc2c1C(=O)c1ccccc1C2=O.O=C(O)C(F)(F)F` [example (15)] (H-[dA]AALGL[dP]-{NH(CH2)3NH(1-anthraquinonyl)}), for which, in data set [5], the “major products / metabolite” value is “the expected cleavage product example (11) [NU:UB 224]” and the rate of metabolism is on record as 2.5 μmol/min/g tissue.
